The values below come from publication PMC5900554, “Fragment-Based Approach to Targeting Inosine-5′-monophosphate Dehydrogenase (IMPDH) from Mycobacterium tuberculosis” (Journal of Medicinal Chemistry, 2018).

The structures appear in SMILES notation. Read-outs that look alike come from different tables or passages of the source.

One assay deals with full-length Mtb IMPDH (Mycobacterium tuberculosis, UniProt P9WKI7). As to the kind of experiment: Inhibition constants toward full-length Mtb IMPDH. It is filed as biochemical. How it is done: (§1) The initial velocities at various inhibitor concentrations were determined based on the slope in the linear part of each reaction containing the inhibitor and the uninhibited reaction. To determine the inhibition constant (Ki values), the initial rate data versus substrate concentration at different inhibitor concentrations were fit using Prism software (GraphPad) to equations for uncompetitive or mixed inhibition. For each inhibitor concentration, the reciprocal of enzyme reaction velocity versus the reciprocal of the substrate concentration was plotted in a Lineweaver–Burk plot to determine the pattern of inhibition.

Assay [1] addresses T1, Mth IMPDH ΔCBS (Mycolicibacterium thermoresistibile, UniProt G7CNL4, R236G). As to the kind of experiment: Inhibition constants (Ki) and mode of inhibition against Mth IMPDH ΔCBS with respect to IMP and NAD+. The assay is classed as biochemical, Mycobacterium thermoresistible. Further details: key to Pattern of inhibition with respect to IMP / Pattern of inhibition with respect to NAD: UC: Uncompetitive inhibition. Particulars: for Pattern of inhibition with respect to IMP / Pattern of inhibition with respect to NAD: UC = uncompetitive; for Pattern of inhibition with respect to IMP / IMP αKi: with respect to IMP; for IMP αKi: fixed saturating NAD+ ([…]); for Pattern of inhibition with respect to NAD / NAD αKi: with respect to NAD+; for NAD αKi: constant saturating IMP (1 mM). As for the experimental part:
The inhibition constant [Ki] with respect to both substrates IMP and NAD^+ was determined by assaying various concentrations of each inhibitor with five different concentrations of substrate and a fixed saturating concentration of the cosubstrate.
as §1

For assay [2], the target named is T1, Mth IMPDH ΔCBS. The assay is classed as biochemical, Mycobacterium thermoresistible. Particulars: SAR statement in text.
Setting [3] is: IMP as the substrate, read-out: Ki with IMP as the substrate.
The mark [4] stands for this setting: NAD as the substrate, read-out: Ki with NAD as the substrate.

In the case of `CC(Oc1ccc(-c2cn(C)cn2)cc1)C(=O)Nc1nc(-c2ccc(Br)cc2)c[nH]1` (centres unmarked) [Compound 31, N-(4-(4-Bromophenyl)-1H-imidazol-2-yl)-2-(4-(1-methyl-1H-imidazol-4-yl)phenoxy)propanamide], the Ki at full-length Mtb IMPDH (setting [3]) was found to be 0.61 ± 0.05 µM. At full-length Mtb IMPDH (setting [4]), the Ki turned out to be 0.39 ± 0.02 µM. On Mth IMPDH ΔCBS [1], the “Pattern of inhibition with respect to IMP” value is “uncompetitive”, the “IMP αKi” value worked out at 0.30 ± 0.02 µM, the “Pattern of inhibition with respect to NAD” value is on record as “uncompetitive” and the “NAD αKi” value came out at 0.20 ± 0.01 µM.

Turning to `O=C(O)c1cc2sccc2s1` [Compound 14], at Mth IMPDH ΔCBS [1], the “Pattern of inhibition with respect to IMP” value is “Mixed”, the “IMP αKi” value was 238 ± 6 µM, the “Pattern of inhibition with respect to NAD” value was “UC” and the “NAD αKi” value was 262 ± 39 µM.

Turning to `O=C(O)CSc1nc(-c2ccccc2)c[nH]1` [Compound 28, 2-((4-Phenyl-1H-imidazol-2-yl)thio)acetic Acid], the “Mth IMPDH ΔCBS inhibitory activity (in words)” value on Mth IMPDH ΔCBS [2] is on record as “complete loss in activity”.

On to `Cc1ccc(-c2nc(C(=O)O)cs2)cc1` [Compound 16], for which, on Mth IMPDH ΔCBS [1], the “Pattern of inhibition with respect to IMP” value is “Mixed”, the “Pattern of inhibition with respect to NAD” value is on record as “UC” and the “NAD αKi” value worked out at 525 ± 64 µM.

As for `CC1(C)Cc2cccc(CO)c2O1` [Compound 19], on Mth IMPDH ΔCBS [1], the “Pattern of inhibition with respect to IMP” value is “Mixed”, the “IMP αKi” value was 126 ± 34 µM, the “Pattern of inhibition with respect to NAD” value is reported as “UC” and the “NAD αKi” value was 355 ± 47 µM.

Turning to `CC(C)NC(=O)CSc1nc(-c2ccccc2)c[nH]1` [Compound 26, N-Isopropyl-2-((4-phenyl-1H-imidazol-2-yl)thio)acetamide], on Mth IMPDH ΔCBS [2], the “Mth IMPDH ΔCBS inhibitory activity (in words)” value is on record as “complete loss of activity”.

As to `Oc1ccc2ccc(O)cc2c1` [Compound 11], at Mth IMPDH ΔCBS [1], the “Pattern of inhibition with respect to IMP” value was “uncompetitive and UC”; the “IMP αKi” value came to 361 ± 53 µM; the “Pattern of inhibition with respect to NAD” value is listed as “UC”; the “NAD αKi” value came out at 310 ± 30 µM.

With `Brc1ccc(-c2c[nH]cn2)cc1` [Compound 2], the Ki on full-length Mtb IMPDH (setting [3]) was determined as 572 ± 14 µM. The Ki at full-length Mtb IMPDH (setting [4]) came out at 534 ± 18 µM. In addition, at Mth IMPDH ΔCBS [1], the “Pattern of inhibition with respect to IMP” value was “uncompetitive and UC”; the “IMP αKi” value worked out at 609 ± 3 µM; the “Pattern of inhibition with respect to NAD” value was “uncompetitive and UC”; the “NAD αKi” value amounted to 512 ± 23 µM.

For `CC(=O)Nc1cc(C)ccc1O` [Compound 18], on Mth IMPDH ΔCBS [1], the “Pattern of inhibition with respect to IMP” value is “uncompetitive and UC”; the “IMP αKi” value was 554 ± 70 µM; the “Pattern of inhibition with respect to NAD” value is listed as “UC”; the “NAD αKi” value is 452 ± 26 µM.

Turning to `CC(Oc1ccc(-c2cn(C)cn2)cc1)C(=O)Nc1ccccc1` (centres unmarked) [Compound 34, 2-(4-(1-Methyl-1H-imidazol-4-yl)phenoxy)-N-phenylpropanamide], the “Mth IMPDH ΔCBS inhibitory activity (in words)” value on Mth IMPDH ΔCBS [2] is “complete loss of activity”.

As for `O=C(O)CSc1nc(-c2ccc(Br)cc2)c[nH]1` [Compound 27, 2-((4-(4-Bromophenyl)-1H-imidazol-2-yl)thio)acetic Acid], at Mth IMPDH ΔCBS [2], the “Mth IMPDH ΔCBS inhibitory activity (in words)” value is “complete loss in activity”.

Consider `COc1ccc(OC(C)C(=O)Nc2ccc(I)cc2)cc1` (centres unmarked) [Compound 1, reference compound], for which, at Mth IMPDH ΔCBS [1], the “Pattern of inhibition with respect to IMP” value was “uncompetitive and UC”; the “Pattern of inhibition with respect to NAD” value was “uncompetitive and UC”; the “NAD αKi” value turned out to be 0.55 ± 0.02 µM.
